How the values were obtained:
[1] = target: Sigma intracellular receptor 2 (Homo sapiens, UniProt Q5BJF2); assay: (§1) PDSP Secondary Binding target: TMEM97 - Compounds are tested at 10 uM concentration, plate are incubated at room temperature in the dark for 90 minutes. Reaction are stopped by vacuum filtration onto 0.3% polyethyleneimine soaked filter mats using Filtermate harvester. Scintillation cocktail is then melted onto microwave-dried filters on a hot plate and the radio activity is counted in Microbia counter.
Sequence of Sigma intracellular receptor 2 (Q5BJF2 whole entry): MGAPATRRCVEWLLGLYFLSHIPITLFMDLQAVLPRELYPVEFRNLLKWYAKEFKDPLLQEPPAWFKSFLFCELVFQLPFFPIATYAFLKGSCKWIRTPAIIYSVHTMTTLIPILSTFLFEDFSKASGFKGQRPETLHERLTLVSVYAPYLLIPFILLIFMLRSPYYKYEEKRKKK

[2] = target: 5-hydroxytryptamine receptor 1E (Homo sapiens, UniProt P28566); assay: as §1, with “HTR1E” for “TMEM97”
Sequence of 5-hydroxytryptamine receptor 1E (P28566 whole entry): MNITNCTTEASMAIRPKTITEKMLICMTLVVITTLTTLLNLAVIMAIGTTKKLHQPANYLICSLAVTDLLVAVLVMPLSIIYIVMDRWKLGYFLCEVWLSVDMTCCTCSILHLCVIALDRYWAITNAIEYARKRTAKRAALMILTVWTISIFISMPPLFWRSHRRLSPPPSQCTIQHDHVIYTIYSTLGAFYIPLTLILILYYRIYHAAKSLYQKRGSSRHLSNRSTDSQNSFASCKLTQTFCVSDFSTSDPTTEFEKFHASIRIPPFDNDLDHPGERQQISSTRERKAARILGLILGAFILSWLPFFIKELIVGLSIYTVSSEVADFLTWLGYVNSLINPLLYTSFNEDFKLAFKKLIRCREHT

D(1B) dopamine receptor = D(1B) dopamine receptor (Homo sapiens, UniProt P21918); assay: as §1, with “DRD5” for “TMEM97”
Sequence of D(1B) dopamine receptor (P21918 whole entry): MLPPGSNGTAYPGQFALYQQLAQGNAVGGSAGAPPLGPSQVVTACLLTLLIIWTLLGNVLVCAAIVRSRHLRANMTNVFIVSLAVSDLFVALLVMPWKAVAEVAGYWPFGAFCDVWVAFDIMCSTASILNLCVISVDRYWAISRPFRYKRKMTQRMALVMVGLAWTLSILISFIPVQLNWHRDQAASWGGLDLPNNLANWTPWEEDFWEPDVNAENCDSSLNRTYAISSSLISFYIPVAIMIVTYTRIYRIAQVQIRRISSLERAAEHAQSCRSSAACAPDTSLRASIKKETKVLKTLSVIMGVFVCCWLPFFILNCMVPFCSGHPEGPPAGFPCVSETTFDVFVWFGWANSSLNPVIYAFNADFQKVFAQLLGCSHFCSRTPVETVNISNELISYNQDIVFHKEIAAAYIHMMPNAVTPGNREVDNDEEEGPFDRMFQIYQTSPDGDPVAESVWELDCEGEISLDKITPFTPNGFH

[3] = target: Sigma non-opioid intracellular receptor 1 (Homo sapiens, UniProt Q99720); assay: as §1, with “SIGMAR1” for “TMEM97”
Sequence of Sigma non-opioid intracellular receptor 1 (Q99720 whole entry): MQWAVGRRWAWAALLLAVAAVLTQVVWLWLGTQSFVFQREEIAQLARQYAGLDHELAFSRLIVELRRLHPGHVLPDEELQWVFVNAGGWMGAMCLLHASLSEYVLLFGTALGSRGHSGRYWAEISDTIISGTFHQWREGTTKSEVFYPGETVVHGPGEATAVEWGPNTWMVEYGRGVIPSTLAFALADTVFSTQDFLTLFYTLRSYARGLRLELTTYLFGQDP

[4] = target: T1, Muscarinic acetylcholine receptor M5 (Homo sapiens, UniProt P08912); assay: as §1, with “CHRM5” for “TMEM97”
T1 sequence (P08912 whole entry): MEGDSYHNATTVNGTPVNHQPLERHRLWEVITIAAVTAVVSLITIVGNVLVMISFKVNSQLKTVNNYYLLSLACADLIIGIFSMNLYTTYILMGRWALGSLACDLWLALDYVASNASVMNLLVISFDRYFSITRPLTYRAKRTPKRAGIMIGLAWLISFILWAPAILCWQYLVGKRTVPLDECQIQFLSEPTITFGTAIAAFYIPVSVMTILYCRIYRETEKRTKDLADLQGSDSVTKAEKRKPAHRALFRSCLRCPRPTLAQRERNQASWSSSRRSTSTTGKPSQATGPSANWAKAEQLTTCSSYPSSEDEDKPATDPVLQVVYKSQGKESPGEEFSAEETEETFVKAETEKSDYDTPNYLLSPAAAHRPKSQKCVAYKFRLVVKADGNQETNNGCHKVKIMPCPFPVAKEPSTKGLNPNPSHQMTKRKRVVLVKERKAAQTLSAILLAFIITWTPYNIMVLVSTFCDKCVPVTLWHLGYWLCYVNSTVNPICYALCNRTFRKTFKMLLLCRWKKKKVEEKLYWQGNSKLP

[5] = target: 5-hydroxytryptamine receptor 1D (Homo sapiens, UniProt P28221); assay: as §1, with “HTR1D” for “TMEM97”
Sequence of 5-hydroxytryptamine receptor 1D (P28221 whole entry): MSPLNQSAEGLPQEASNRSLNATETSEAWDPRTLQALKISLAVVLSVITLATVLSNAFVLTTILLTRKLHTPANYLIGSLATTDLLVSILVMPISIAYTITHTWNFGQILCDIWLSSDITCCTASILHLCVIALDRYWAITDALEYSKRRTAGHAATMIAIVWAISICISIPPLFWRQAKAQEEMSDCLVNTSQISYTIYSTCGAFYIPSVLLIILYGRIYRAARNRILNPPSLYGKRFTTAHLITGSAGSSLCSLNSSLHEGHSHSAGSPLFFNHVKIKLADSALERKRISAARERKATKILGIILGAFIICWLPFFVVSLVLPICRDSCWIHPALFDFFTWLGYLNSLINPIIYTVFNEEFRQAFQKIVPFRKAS

[6] = target: Kappa-type opioid receptor (Homo sapiens, UniProt P41145); assay: as §1, with “OPRK1” for “TMEM97”
Sequence of Kappa-type opioid receptor (P41145 whole entry): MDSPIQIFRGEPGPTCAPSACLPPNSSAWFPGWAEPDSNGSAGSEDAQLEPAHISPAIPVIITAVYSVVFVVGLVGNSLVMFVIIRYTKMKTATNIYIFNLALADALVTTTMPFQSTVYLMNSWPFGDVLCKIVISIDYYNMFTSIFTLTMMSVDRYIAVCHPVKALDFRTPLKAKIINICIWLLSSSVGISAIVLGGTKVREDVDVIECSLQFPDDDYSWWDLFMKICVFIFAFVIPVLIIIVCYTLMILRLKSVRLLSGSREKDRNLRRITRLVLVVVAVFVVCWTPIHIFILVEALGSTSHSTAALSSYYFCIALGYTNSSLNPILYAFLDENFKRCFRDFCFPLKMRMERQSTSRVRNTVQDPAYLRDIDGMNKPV

[7] = target: 5-hydroxytryptamine receptor 7 (Homo sapiens, UniProt P34969); assay: as §1, with “HTR7” for “TMEM97”
Sequence of 5-hydroxytryptamine receptor 7 (P34969 whole entry): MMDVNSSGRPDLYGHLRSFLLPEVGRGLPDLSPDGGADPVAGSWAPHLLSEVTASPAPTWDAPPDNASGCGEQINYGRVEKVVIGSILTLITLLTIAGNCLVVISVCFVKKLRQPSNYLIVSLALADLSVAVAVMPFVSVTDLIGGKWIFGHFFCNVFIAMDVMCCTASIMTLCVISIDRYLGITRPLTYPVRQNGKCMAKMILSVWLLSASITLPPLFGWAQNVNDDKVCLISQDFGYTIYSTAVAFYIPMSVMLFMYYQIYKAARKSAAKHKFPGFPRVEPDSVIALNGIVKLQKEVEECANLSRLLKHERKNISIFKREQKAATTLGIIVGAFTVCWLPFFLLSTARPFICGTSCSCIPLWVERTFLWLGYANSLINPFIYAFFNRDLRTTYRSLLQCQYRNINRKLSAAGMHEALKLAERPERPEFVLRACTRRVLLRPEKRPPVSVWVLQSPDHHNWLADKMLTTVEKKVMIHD

## CN1CCC(C(=O)c2cccc(NC(=O)c3c(F)cc(F)cc3F)n2)CC1
[1]
  Ki: 184 nM
[2]
  Ki: 127 nM
D(1B) dopamine receptor
  Ki: 253 nM
[3]
  Ki: 3130 nM
[4]
  Ki: 632 nM
[5]
  Ki: 869 nM
[6]
  Ki: 357 nM
[7]
  Ki: 5410 nM
